In PMC9401487 (Clinical Cancer Research, 2021):

System: patients with advanced solid tumors
Experiment: Phase I safety and tolerability
Format: in vivo, human
[1] = Cohort 5 (N=8), 60 mg QD 7 days + carboplatin
[2] = Cohort 6 (N=7), co-dosing 60 mg QD + carboplatin days 1–3
[3] = Cohort 6: 60 mg QD days 1–3 + carboplatin AUC5 day 1, 7 patients
[4] = Cohort 7 (N=6), co-dosing 40 mg QD + carboplatin days 1 and 2

## C[C@@H]1COCCN1c1cc(C2([S@](C)(=N)=O)CC2)nc(-c2cc[nH]c3nccc2-3)n1 [ceralasertib]
[1]
  TEAE Arthralgia, Grade 1–2: 2 (25) patients, n (%)
  TEAE Arthralgia, Grade ≥3: 0 patients, n (%)
  TEAE Aspartate aminotransferase increased, Grade 1–2: 1 (13) patients, n (%)
  TEAE Aspartate aminotransferase increased, Grade ≥3: 1 (13) patients, n (%)
  TEAE Constipation, Grade 1–2: 1 (13) patients, n (%)
  TEAE Constipation, Grade ≥3: 0 patients, n (%)
  TEAE Contusion, Grade 1–2: 0 patients, n (%)
  TEAE Contusion, Grade ≥3: 0 patients, n (%)
  TEAE Cough, Grade 1–2: 0 patients, n (%)
  TEAE Cough, Grade ≥3: 0 patients, n (%)
  TEAE Decreased appetite, Grade 1–2: 2 (25) patients, n (%)
  TEAE Decreased appetite, Grade ≥3: 0 patients, n (%)
  TEAE Diarrhea, Grade 1–2: 1 (13) patients, n (%)
  TEAE Diarrhea, Grade ≥3: 0 patients, n (%)
  TEAE Dizziness, Grade 1–2: 2 (25) patients, n (%)
  TEAE Dizziness, Grade ≥3: 0 patients, n (%)
  TEAE Dyspnea, Grade 1–2: 0 patients, n (%)
  TEAE Dyspnea, Grade ≥3: 0 patients, n (%)
  TEAE Fatigue, Grade 1–2: 3 (38) patients, n (%)
  TEAE Fatigue, Grade ≥3: 0 patients, n (%)
  TEAE Hypocalcemia, Grade 1–2: 2 (25) patients, n (%)
  TEAE Hypocalcemia, Grade ≥3: 0 patients, n (%)
  TEAE Insomnia, Grade 1–2: 0 patients, n (%)
  TEAE Insomnia, Grade ≥3: 0 patients, n (%)
  TEAE Lower respiratory tract infection, Grade 1–2: 1 (13) patients, n (%)
  TEAE Lower respiratory tract infection, Grade ≥3: 1 (13) patients, n (%)
  TEAE Nausea, Grade 1–2: 4 (50) patients, n (%)
  TEAE Nausea, Grade ≥3: 0 patients, n (%)
  TEAE Neutropenia, Grade 1–2: 0 patients, n (%)
  TEAE Neutropenia, Grade ≥3: 0 patients, n (%)
  TEAE Neutrophil count decreased, Grade 1–2: 0 patients, n (%)
  TEAE Neutrophil count decreased, Grade ≥3: 1 (13) patients, n (%)
  TEAE Platelet count decreased, Grade 1–2: 1 (13) patients, n (%)
  TEAE Platelet count decreased, Grade ≥3: 0 patients, n (%)
  TEAE Pyrexia, Grade 1–2: 2 (25) patients, n (%)
  TEAE Pyrexia, Grade ≥3: 0 patients, n (%)
  TEAE Thrombocytopenia, Grade 1–2: 4 (50) patients, n (%)
  TEAE Thrombocytopenia, Grade ≥3: 2 (25) patients, n (%)
  TEAE Upper respiratory tract infection, Grade 1–2: 0 patients, n (%)
  TEAE Upper respiratory tract infection, Grade ≥3: 0 patients, n (%)
  TEAE Vomiting, Grade 1–2: 0 patients, n (%)
  TEAE Vomiting, Grade ≥3: 0 patients, n (%)
  TEAE White blood cell count decreased, Grade 1–2: 0 patients, n (%)
  TEAE White blood cell count decreased, Grade ≥3: 1 (13) patients, n (%)
[2]
  TEAE Abdominal pain, Grade 1–2: 1 (14) patients, n (%)
  TEAE Abdominal pain, Grade ≥3: 0 patients, n (%)
  TEAE Alanine aminotransferase increased, Grade 1–2: 0 patients, n (%)
  TEAE Alanine aminotransferase increased, Grade ≥3: 0 patients, n (%)
  TEAE Anemia, Grade 1–2: 2 (29) patients, n (%)
  TEAE Anemia, Grade ≥3: 4 (57) patients, n (%)
  TEAE Any AE, Grade 1–2: 0 patients, n (%)
  TEAE Any AE, Grade ≥3: 7 (100) patients, n (%)
  TEAE Arthralgia, Grade 1–2: 0 patients, n (%)
  TEAE Arthralgia, Grade ≥3: 0 patients, n (%)
  TEAE Aspartate aminotransferase increased, Grade 1–2: 0 patients, n (%)
  TEAE Aspartate aminotransferase increased, Grade ≥3: 0 patients, n (%)
  TEAE Constipation, Grade 1–2: 1 (14) patients, n (%)
  TEAE Constipation, Grade ≥3: 0 patients, n (%)
  TEAE Contusion, Grade 1–2: 0 patients, n (%)
  TEAE Contusion, Grade ≥3: 0 patients, n (%)
  TEAE Cough, Grade 1–2: 0 patients, n (%)
  TEAE Cough, Grade ≥3: 0 patients, n (%)
  TEAE Decreased appetite, Grade 1–2: 0 patients, n (%)
  TEAE Decreased appetite, Grade ≥3: 0 patients, n (%)
  TEAE Diarrhea, Grade 1–2: 1 (14) patients, n (%)
  TEAE Diarrhea, Grade ≥3: 0 patients, n (%)
  TEAE Dizziness, Grade 1–2: 1 (14) patients, n (%)
  TEAE Dizziness, Grade ≥3: 0 patients, n (%)
  TEAE Dyspnea, Grade 1–2: 1 (14) patients, n (%)
  TEAE Dyspnea, Grade ≥3: 0 patients, n (%)
  TEAE Fatigue, Grade 1–2: 1 (14) patients, n (%)
  TEAE Fatigue, Grade ≥3: 0 patients, n (%)
  TEAE Hypocalcemia, Grade 1–2: 1 (14) patients, n (%)
  TEAE Hypocalcemia, Grade ≥3: 0 patients, n (%)
  TEAE Insomnia, Grade 1–2: 2 (29) patients, n (%)
  TEAE Insomnia, Grade ≥3: 0 patients, n (%)
  TEAE Lower respiratory tract infection, Grade 1–2: 1 (14) patients, n (%)
  TEAE Lower respiratory tract infection, Grade ≥3: 0 patients, n (%)
  TEAE Nausea, Grade 1–2: 6 (86) patients, n (%)
  TEAE Nausea, Grade ≥3: 1 (14) patients, n (%)
  TEAE Neutropenia, Grade 1–2: 1 (14) patients, n (%)
  TEAE Neutropenia, Grade ≥3: 5 (71) patients, n (%)
  TEAE Neutrophil count decreased, Grade 1–2: 0 patients, n (%)
  TEAE Neutrophil count decreased, Grade ≥3: 1 (14) patients, n (%)
  TEAE Platelet count decreased, Grade 1–2: 0 patients, n (%)
  TEAE Platelet count decreased, Grade ≥3: 0 patients, n (%)
  TEAE Pyrexia, Grade 1–2: 1 (14) patients, n (%)
  TEAE Pyrexia, Grade ≥3: 0 patients, n (%)
  TEAE Thrombocytopenia, Grade 1–2: 2 (29) patients, n (%)
  TEAE Thrombocytopenia, Grade ≥3: 4 (57) patients, n (%)
  TEAE Upper respiratory tract infection, Grade 1–2: 0 patients, n (%)
  TEAE Upper respiratory tract infection, Grade ≥3: 0 patients, n (%)
  TEAE Vomiting, Grade 1–2: 4 (57) patients, n (%)
  TEAE Vomiting, Grade ≥3: 1 (14) patients, n (%)
  TEAE White blood cell count decreased, Grade 1–2: 0 patients, n (%)
  TEAE White blood cell count decreased, Grade ≥3: 2 (29) patients, n (%)
[3]
  Number of DLTs: no DLTs
  SRC decision (tolerability): not tolerated beyond cycle 1
[4]
  TEAE Abdominal pain, Grade 1–2: 2 (33) patients, n (%)
  TEAE Abdominal pain, Grade ≥3: 0 patients, n (%)
  TEAE Alanine aminotransferase increased, Grade 1–2: 1 (17) patients, n (%)
  TEAE Alanine aminotransferase increased, Grade ≥3: 0 patients, n (%)
  TEAE Anemia, Grade 1–2: 1 (17) patients, n (%)
  TEAE Anemia, Grade ≥3: 4 (67) patients, n (%)
  TEAE Any AE, Grade 1–2: 1 (17) patients, n (%)
  TEAE Any AE, Grade ≥3: 5 (83) patients, n (%)
  TEAE Arthralgia, Grade 1–2: 1 (17) patients, n (%)
  TEAE Arthralgia, Grade ≥3: 0 patients, n (%)
  TEAE Aspartate aminotransferase increased, Grade 1–2: 1 (17) patients, n (%)
  TEAE Aspartate aminotransferase increased, Grade ≥3: 0 patients, n (%)
